The values that follow come from article PMC7714403 (JCI Insight, 2020).

The target in one assay is T1, ABL1 (Homo sapiens, UniProt P00519).
T1 construct: purchased Eurofins DiscoverX
The assay is described as follows: KdELECT binding assay.

In a further assay the target is CDK7 (Homo sapiens, UniProt P50613). The assay is described as follows: KiNativ, OCI cells live cell. In kind it is cell-based. To be noted: 2 h, labeling site Lys2, peptide […].
For a further assay, the target named is T2, JAK3 (Homo sapiens, UniProt P52333).
T2 construct: purchased Eurofins DiscoverX
The assay is described as follows: KdELECT binding assay.

The next assay has as its target CaMK2d (Homo sapiens, UniProt Q13557). The assay is described as follows: KiNativ, OCI cells live cell. It counts as cell-based. The settings on record: 2 h, labeling site Lys1, peptide […].
The target of another assay is T3, MAP2K4 (Homo sapiens, UniProt P45985).
T3 sequence (P45985 1-399): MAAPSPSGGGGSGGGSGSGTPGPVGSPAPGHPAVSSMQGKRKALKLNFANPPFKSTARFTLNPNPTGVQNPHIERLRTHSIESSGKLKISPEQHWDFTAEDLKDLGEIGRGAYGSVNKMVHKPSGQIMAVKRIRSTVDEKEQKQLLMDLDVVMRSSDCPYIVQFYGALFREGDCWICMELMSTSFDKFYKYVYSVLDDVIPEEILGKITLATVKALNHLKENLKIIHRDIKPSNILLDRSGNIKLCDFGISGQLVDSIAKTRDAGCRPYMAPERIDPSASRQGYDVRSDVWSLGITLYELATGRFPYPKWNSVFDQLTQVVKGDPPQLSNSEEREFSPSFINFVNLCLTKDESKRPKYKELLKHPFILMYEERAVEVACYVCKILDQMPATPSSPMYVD
The assay is described as follows: KiNativ, OCI cells live cell. In kind it is cell-based. The settings on record: 2 h.

The next assay concerns the target T4, GCK (Homo sapiens, UniProt Q12851).
T4 sequence (Q12851 1-820): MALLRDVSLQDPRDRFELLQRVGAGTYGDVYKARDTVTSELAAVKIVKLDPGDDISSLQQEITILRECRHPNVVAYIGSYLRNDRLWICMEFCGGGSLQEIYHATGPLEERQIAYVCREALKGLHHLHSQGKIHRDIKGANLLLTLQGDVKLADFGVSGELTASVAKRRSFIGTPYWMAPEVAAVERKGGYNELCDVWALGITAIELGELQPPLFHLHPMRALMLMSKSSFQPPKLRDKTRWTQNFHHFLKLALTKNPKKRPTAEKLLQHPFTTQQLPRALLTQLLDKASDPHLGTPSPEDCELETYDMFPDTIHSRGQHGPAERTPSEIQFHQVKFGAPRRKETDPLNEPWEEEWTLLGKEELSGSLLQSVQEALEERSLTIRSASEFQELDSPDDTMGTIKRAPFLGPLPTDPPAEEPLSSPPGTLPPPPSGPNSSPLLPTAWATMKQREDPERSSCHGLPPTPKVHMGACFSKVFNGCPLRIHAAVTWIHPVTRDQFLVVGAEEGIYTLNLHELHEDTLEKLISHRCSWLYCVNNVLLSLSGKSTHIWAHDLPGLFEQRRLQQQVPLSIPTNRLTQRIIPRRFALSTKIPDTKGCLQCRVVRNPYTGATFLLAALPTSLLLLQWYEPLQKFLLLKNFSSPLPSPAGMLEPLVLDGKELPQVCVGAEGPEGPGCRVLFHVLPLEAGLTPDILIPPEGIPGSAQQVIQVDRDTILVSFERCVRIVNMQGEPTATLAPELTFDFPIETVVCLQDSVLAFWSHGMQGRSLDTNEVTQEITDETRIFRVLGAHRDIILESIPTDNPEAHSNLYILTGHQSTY
The assay is described as follows: KdELECT binding assay. Also on record: purchased Eurofins DiscoverX.

The target of another assay is T5, AurA (Homo sapiens, UniProt O14965).
T5 sequence (O14965 1-403): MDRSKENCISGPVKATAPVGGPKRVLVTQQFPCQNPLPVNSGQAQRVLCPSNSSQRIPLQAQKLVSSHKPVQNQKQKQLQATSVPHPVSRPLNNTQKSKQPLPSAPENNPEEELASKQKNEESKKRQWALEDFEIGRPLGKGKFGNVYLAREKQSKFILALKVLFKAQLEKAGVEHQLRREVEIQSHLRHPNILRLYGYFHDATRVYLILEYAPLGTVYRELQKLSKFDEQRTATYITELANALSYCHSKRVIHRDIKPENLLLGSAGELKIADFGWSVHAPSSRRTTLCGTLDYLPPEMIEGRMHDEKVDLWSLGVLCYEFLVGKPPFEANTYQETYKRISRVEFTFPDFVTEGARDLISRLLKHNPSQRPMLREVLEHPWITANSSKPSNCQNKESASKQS
The assay is described as follows: KiNativ, OCI cells live cell. It counts as cell-based. The settings on record: 2 h.

The next assay concerns the target AurB (Homo sapiens, UniProt Q96GD4). The assay can be described thus: KiNativ, OCI cells live cell. It counts as cell-based. To be noted: 2 h, labeling site Lys1, peptide […].
In the next assay the target is PI4KB (Homo sapiens, UniProt Q9UBF8). The assay can be described thus: KiNativ, OCI cells live cell. To be noted: 2 h, labeling site ATP. In kind it is cell-based.
In another assay the target is CCRK (Homo sapiens, UniProt Q8IZL9). The assay can be described thus: KiNativ, OCI cells live cell. It counts as cell-based. To be noted: 2 h, labeling site Lys2, peptide […].
For assay [1], the system named is RSK1 domain1, RSK2 domain1, RSK3 domain1. The assay can be described thus: KiNativ, OCI cells live cell. To be noted: labeling site Lys2, peptide DLKPENILLDEEGHIK
In kind it is cell-based, human.

The target in another assay is T6, FGFR1 (Homo sapiens, UniProt P11362).
T6 construct: purchased Eurofins DiscoverX
The assay is described as follows: KdELECT binding assay.

The next assay concerns the target MAP3K2 (Homo sapiens, UniProt Q9Y2U5). The assay can be described thus: KiNativ, OCI cells live cell. It counts as cell-based. The settings on record: 2 h, labeling site Lys1, peptide […].
The next assay has as its target MST3 (Homo sapiens, UniProt Q9Y6E0). The assay can be described thus: KiNativ, OCI cells live cell. In kind it is cell-based. The settings on record: labeling site Lys2, peptide DIKAANVLLSEHGEVK
The next assay has as its target CDK10 (Homo sapiens, UniProt Q15131). The assay is described as follows: KiNativ, OCI cells live cell. It counts as cell-based. The settings on record: 2 h, labeling site Lys2, peptide […].
The target of the next assay is T7, RSK2 domain2 (Homo sapiens, UniProt P51812).
T7 construct: RSK2 domain2
The assay can be described thus: KiNativ, OCI cells live cell. To be noted: 2 h, labeling site Lys2, peptide […]. It counts as cell-based.

Another assay concerns NEK6, NEK7. The assay can be described thus: KiNativ, OCI cells live cell. It counts as cell-based, human. To be noted: labeling site Lys2, peptide DIKPANVFITATGVVK
The target of the next assay is T8, FLT3 D835Y (Homo sapiens, UniProt P36888, D835Y).
T8 construct: purchased Eurofins DiscoverX
The assay can be described thus: KdELECT binding assay.

PI4KB, sequence (Q9UBF8 whole entry): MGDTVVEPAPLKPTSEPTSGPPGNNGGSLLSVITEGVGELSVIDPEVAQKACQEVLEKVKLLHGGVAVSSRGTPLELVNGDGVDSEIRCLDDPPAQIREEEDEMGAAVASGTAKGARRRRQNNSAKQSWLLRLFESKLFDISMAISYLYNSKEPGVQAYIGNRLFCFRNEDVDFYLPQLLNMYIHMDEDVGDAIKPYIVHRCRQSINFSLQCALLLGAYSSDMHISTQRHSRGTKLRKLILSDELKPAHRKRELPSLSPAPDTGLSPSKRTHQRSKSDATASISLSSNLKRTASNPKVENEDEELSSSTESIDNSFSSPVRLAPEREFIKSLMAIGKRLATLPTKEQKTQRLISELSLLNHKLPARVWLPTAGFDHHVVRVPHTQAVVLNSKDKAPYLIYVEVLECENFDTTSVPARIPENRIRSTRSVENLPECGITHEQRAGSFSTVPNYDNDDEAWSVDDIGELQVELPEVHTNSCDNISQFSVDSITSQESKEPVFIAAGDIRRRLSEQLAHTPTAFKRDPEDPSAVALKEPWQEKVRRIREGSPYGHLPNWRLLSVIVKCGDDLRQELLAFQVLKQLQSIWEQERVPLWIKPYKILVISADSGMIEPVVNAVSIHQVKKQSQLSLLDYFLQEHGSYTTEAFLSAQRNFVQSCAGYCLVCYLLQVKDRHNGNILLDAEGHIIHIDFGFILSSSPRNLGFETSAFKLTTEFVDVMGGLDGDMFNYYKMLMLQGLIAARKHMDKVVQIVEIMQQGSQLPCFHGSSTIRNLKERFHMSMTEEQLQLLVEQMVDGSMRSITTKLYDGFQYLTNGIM
T6 sequence (P11362 22-822): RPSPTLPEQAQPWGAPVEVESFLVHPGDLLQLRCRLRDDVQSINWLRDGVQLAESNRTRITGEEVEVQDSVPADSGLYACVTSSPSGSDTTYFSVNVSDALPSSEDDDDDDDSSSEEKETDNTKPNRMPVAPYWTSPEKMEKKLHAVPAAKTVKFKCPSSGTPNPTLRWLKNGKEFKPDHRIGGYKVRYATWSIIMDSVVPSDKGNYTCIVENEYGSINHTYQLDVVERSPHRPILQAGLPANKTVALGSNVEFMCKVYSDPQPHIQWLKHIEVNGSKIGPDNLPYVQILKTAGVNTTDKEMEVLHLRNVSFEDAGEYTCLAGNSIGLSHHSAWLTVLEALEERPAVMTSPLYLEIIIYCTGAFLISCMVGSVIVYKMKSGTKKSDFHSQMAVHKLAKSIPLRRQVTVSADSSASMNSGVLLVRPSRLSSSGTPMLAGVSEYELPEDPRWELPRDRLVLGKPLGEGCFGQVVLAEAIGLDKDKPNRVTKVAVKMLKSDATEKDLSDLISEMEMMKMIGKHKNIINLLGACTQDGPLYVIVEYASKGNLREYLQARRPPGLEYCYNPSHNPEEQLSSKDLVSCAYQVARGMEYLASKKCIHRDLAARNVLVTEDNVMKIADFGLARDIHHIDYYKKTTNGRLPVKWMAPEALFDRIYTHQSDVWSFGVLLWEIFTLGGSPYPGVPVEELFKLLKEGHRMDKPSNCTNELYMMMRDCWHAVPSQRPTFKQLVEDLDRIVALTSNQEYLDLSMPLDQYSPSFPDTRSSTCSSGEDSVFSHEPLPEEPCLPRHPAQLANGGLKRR
MAP3K2, sequence (Q9Y2U5 whole entry): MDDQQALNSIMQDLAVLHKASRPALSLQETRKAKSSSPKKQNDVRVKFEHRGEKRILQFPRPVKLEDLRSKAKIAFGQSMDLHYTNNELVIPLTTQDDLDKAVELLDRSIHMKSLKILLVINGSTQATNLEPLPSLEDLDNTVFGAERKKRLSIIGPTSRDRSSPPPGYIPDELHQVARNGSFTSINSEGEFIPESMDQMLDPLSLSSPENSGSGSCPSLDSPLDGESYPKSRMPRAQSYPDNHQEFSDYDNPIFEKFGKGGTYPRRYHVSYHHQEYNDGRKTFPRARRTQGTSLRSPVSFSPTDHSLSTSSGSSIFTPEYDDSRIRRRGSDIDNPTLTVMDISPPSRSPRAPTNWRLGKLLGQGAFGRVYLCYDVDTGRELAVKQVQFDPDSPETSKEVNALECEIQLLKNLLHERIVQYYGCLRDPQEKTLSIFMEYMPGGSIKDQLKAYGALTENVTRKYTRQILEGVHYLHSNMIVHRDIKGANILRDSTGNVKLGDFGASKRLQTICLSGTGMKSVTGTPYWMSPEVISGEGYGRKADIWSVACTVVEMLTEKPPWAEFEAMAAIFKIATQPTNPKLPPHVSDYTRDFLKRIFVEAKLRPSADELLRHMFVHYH
MST3, sequence (Q9Y6E0 whole entry): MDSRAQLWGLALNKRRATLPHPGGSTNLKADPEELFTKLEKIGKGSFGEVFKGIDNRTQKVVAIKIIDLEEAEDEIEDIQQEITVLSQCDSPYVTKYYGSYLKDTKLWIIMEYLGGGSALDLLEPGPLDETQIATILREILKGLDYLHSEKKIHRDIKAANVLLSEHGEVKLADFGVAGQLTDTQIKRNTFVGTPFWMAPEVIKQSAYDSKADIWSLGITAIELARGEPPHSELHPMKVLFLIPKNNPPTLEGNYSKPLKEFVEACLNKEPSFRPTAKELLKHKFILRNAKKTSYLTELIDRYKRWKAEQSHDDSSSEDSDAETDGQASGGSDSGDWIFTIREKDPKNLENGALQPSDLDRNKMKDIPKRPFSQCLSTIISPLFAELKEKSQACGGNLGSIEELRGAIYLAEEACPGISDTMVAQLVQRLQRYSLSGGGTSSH
CCRK, sequence (Q8IZL9 whole entry, the tested form may be a part): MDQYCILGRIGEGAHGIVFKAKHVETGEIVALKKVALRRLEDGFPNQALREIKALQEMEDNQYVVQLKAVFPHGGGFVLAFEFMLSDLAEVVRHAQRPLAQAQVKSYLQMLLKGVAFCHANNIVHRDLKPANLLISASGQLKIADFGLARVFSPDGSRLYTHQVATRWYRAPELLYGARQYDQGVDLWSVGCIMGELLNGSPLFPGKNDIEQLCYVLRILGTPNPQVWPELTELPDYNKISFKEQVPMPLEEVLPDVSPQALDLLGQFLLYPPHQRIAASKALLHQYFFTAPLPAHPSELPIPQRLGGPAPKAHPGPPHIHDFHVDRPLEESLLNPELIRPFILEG
CDK7, sequence (P50613 2-346 limits assumed): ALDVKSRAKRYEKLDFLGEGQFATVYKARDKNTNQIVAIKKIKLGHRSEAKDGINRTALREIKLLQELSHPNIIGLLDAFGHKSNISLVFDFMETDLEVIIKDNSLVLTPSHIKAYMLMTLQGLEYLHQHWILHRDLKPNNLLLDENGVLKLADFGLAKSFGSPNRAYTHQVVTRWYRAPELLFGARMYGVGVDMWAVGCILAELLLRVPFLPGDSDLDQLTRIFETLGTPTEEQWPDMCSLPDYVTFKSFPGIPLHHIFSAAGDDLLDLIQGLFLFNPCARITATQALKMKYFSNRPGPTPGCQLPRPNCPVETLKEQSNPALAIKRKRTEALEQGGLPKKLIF
CDK7, sequence (P51946 whole entry partner): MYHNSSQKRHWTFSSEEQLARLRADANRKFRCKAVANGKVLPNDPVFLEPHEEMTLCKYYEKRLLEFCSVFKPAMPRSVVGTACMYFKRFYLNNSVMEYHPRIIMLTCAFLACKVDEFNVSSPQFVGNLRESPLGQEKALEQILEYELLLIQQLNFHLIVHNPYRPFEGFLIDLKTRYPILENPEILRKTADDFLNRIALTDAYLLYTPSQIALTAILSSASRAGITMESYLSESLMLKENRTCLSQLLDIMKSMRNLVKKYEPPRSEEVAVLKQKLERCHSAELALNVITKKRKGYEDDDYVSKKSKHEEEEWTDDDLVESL
CDK7, sequence (P51948 whole entry partner): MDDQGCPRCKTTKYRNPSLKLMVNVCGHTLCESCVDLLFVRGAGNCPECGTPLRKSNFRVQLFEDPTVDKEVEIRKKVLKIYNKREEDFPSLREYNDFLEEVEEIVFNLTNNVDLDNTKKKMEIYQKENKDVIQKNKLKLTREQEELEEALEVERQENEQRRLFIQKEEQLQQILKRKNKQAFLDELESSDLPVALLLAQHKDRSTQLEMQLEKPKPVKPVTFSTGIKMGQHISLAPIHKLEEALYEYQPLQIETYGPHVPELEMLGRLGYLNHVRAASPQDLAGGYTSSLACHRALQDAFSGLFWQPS
CaMK2d, sequence (Q13557 whole entry): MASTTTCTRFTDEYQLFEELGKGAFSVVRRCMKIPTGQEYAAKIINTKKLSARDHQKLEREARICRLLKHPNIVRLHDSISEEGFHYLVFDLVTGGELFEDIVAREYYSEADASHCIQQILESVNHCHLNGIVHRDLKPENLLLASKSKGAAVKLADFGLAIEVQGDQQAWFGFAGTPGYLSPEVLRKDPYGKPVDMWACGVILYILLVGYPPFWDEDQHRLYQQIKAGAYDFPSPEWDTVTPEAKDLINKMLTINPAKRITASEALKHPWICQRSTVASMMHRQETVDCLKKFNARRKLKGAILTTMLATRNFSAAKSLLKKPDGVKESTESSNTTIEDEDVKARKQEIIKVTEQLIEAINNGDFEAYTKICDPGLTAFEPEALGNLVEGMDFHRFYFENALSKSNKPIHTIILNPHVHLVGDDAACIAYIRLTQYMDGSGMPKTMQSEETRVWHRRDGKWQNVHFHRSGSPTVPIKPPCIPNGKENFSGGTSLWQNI
AurB, sequence (Q96GD4 whole entry): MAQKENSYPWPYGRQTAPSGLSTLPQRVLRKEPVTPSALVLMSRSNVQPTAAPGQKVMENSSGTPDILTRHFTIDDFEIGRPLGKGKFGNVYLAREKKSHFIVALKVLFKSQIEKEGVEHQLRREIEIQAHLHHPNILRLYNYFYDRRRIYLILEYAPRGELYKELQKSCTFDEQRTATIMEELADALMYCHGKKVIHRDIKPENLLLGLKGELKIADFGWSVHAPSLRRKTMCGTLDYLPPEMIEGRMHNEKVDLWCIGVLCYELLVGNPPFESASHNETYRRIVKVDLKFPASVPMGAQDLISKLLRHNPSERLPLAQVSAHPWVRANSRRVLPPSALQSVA

Regarding `CN1CCN(Cc2ccc(Nc3ncc(Cl)c(Nc4ccccc4S(=O)(=O)N(C)C)n3)cc2)CC1` [TP-0903], the Kd (as a rule, the concentration at which binding is half-saturated) on ABL1 is less than 5 nM; at JAK3, less than 5 nM; on GCK it was 1.8 nM; at FGFR1, 21 nM; on FLT3 D835Y it was 1.4 nM. The inhibition (usually the relative decrease from the control value, in per cent) at 0.1 µM at CDK7 is 95.7%; on CaMK2d it was 34.5%; against MAP2K4 (labeling site Activation Loop, peptide LCDFGISGQLVDSIAKTR) it was -0.165%; against MAP2K4 (labeling site Lys1, peptide MVHKPSGQIMAVKR), 5.4%; against MAP2K4 (labeling site Lys2, peptide DIKPSNILLDR) it was 3.5%; at AurA (labeling site Lys1, peptide FILALKVLFK) it was 89.9%. The inhibition at 0.1 µM on AurA (labeling site Lys2, peptide DIKPENLLLGSAGELK) was 90.7%; on AurB, 83%; at PI4KB (peptide LLSVIVKCGDDLRQELLAFQVLK) it was -13.1%; against PI4KB (peptide VPHTQAVVLNSKDK), -23.3%; on CCRK, 58.1%; against MAP3K2, 30.6%. For the same compound, the inhibition at 0.1 µM against CDK10 is 10%; against RSK2 domain2 it was -18.2%. Moreover, the Inhibition – broadly, the drop in the measured response relative to a control, in per cent – was 54.4% in assay [1]; 35.2% at MST3; -9.6% with NEK6, NEK7.
